# Data taken from article PMC6543040, “Structural and biochemical characterization of Rv0187, an O-methyltransferase from Mycobacterium tuberculosis” (Scientific Reports, 2019).
# B1: Rv0187 fused with a C-terminal His6-tag (pLATE31-Rv0187 construct) (enzyme)
# chain: MDQQPNPPDVDAFLDSTLVGDDPALAAALAASDAAELPRIAVSAQQGKFLCLLAGAIQARRVLEIGTLGGFSTIWLARGAGPQGRVVTLEYQPKHAEVARVNLQRAGVADRVEVVVGPALDTLPTLAGGPFDLVFIDADKENNVAYIQWAIRLARRGAVIVVDNVIRGGGILAESDDADAVAARRTLQMMGEHPGLDATAIQTVGRKGWDGFALALVR
# notes: also called MTB Rv0187; C-terminal His6-tagged construct; not shown: His6, C-terminal, kept
# How the values were obtained:
# Rv0187 [1] = molecular target: T1, Rv0187 (Mycobacterium tuberculosis, UniProt O07431); assay: biochemical; type: binding
# Rv0187 [2] = molecular target: T1, Rv0187; type: biochemical; parameters: pLATE31-Rv0187 (C-terminal His6-tag)
# Rv0187 [3] = molecular target: T1, Rv0187; assay: co-crystal structure, […] Å; type: binding; parameters: C-terminal His6-tag after a TEV cleavage site (pLATE31-Rv0187-TEV)
# COc1cc(C(=O)O)cc(O)c1O = assay: purified protein; details: SAM; Mg2+
# [4] = test system: O=C(O)/C=C/c1ccc(O)c(O)c1; assay: purified protein; details: SAM; Mg2+
# O=C(O)c1ccc(O)c(O)c1 = assay: purified protein; details: SAM; Mg2+
# SEC = molecular target: the molecule itself; assay: SEC
# T1 sequence (O07431 whole entry): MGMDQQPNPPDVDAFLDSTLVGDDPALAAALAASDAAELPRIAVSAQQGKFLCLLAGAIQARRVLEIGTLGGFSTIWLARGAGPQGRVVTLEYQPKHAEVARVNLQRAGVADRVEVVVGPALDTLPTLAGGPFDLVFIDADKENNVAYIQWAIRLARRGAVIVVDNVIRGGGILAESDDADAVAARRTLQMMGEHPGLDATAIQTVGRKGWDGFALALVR
molecule,measurement,setting,value
"C[S+](CC[C@H](N)C(=O)[O-])C[C@H]1O[C@@H](n2cnc3c(N)ncnc32)[C@H](O)[C@@H]1O (stereo partly drawn) [SAM, S-adenosyl-l-methionine]",Kd,Rv0187 [1],9.3 ± 0.7 µM
"O=c1[nH]c(=O)n([C@@H]2O[C@H](CO)[C@@H](O)[C@H]2O)cc1O [ho^5U, 5-hydroxyuridine]","in vitro methyltransfer assay, HPLC/LC-MS",Rv0187 [2],"methylation of 5-hydroxyuridine (ho^5U) yielded a single product, 5-methoxyuridine (mo^5U)"
"O=C(O)c1cc(O)c(O)c(O)c1 [GA, gallic acid]","in vitro methyltransfer assay, HPLC/LC-MS",Rv0187 [2],"PCA, 5OMeBA, and GA were more readily modified at the para-hydroxyl group"
NCCc1ccc(O)c(O)c1 [dopamine],"in vitro methyltransfer assay, HPLC/LC-MS",Rv0187 [2],"DHA, dopamine and CA were preferentially methylated at the meta position"
"O=Cc1ccc(O)c(O)c1 [DHA, 3,4-dihydroxy-benzaldehyde]","in vitro methyltransfer assay, HPLC/LC-MS",Rv0187 [2],"DHA, dopamine and CA were preferentially methylated at the meta position"
"Nc1ncnc2c1ncn2[C@@H]1O[C@H](CSCC[C@H](N)C(=O)O)[C@@H](O)[C@H]1O [SAH, S-adenosyl-l-homocysteine]","co-crystal structure, 1.64 Å",Rv0187 [3],each subunit exhibits the unambiguous presence of a divalent metal ion and SAH
Rv0187 (Mycobacterium tuberculosis H37Rv),Km,COc1cc(C(=O)O)cc(O)c1O,30 ± 4 µM
same,Km,[4],490 ± 170 µM
same,Km,O=C(O)c1ccc(O)c(O)c1,150 ± 20 µM
O=c1c(O)c(-c2ccc(O)c(O)c2)oc2cc(O)cc(O)c12 [quercetin],"in vitro methyltransfer assay, HPLC/LC-MS",Rv0187 [2],"Rv0187 was able to methylate flavonoids (luteolin and quercetin), although the precise methylation site could not be assigned"
B1,stoichiometry N,SEC,2
